A word on the IC50: it is the midpoint of a concentration-inhibition curve. High values mean weaker potency in that assay, low ones greater potency in that assay.

Data on 24 molecules can be found in patent publication US9481670B2, “Triazine compounds” (Sphaera Pharma PTE. Ltd., priority 2011, dated 2016).

Structures are written as SMILES.

For the experiment, the target named is T1, PI3K alpha (Homo sapiens, UniProt P42336).
T1 construct: purchased Millipore Upstate
T1 sequence (P42336 whole entry): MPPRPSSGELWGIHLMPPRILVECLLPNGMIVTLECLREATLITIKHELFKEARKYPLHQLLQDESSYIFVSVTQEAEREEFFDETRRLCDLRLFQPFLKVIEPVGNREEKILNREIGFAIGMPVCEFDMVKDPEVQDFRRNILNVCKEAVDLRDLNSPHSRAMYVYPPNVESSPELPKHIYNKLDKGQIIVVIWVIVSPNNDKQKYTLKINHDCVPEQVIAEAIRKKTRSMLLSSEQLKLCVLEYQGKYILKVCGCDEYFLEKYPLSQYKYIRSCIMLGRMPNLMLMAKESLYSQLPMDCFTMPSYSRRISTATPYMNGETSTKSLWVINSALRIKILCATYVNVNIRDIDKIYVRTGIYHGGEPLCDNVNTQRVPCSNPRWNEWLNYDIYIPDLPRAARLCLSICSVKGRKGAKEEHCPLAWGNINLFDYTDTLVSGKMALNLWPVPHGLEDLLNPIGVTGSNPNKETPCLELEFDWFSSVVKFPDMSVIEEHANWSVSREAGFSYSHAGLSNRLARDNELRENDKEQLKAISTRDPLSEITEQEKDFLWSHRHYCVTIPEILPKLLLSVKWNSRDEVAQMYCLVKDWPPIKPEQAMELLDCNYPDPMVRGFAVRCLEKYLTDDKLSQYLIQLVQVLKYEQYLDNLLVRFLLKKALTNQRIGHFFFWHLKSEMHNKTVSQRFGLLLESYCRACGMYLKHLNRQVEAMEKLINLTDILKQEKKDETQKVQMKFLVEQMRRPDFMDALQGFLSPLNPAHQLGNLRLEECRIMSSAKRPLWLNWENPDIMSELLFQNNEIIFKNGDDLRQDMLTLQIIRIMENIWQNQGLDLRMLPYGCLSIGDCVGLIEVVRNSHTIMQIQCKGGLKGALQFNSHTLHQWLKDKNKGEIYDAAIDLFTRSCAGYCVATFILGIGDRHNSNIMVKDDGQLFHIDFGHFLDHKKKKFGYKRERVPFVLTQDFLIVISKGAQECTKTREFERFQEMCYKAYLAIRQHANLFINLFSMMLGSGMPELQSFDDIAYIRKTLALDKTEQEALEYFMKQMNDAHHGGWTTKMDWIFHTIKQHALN
T1 sequence (P27986 whole entry partner): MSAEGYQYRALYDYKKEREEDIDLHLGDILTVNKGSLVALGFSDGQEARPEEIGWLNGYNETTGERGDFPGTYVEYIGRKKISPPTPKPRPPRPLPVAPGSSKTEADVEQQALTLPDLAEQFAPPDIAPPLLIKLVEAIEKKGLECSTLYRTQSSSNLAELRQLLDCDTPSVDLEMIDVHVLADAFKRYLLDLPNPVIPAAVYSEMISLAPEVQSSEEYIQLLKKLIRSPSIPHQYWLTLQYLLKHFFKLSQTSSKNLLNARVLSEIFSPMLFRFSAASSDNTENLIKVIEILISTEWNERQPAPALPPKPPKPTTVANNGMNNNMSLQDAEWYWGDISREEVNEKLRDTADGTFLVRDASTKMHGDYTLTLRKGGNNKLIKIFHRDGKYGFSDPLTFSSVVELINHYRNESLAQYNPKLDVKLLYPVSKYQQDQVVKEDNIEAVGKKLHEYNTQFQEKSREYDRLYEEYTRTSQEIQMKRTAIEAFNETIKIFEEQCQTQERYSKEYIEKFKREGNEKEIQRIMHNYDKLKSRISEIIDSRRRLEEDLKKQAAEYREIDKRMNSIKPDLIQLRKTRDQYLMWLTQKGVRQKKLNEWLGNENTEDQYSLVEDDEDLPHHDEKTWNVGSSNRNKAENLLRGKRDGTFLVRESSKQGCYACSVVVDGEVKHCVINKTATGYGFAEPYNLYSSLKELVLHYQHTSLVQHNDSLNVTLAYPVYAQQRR
The experiment is described as follows: P110 Alpha TR-FRET Assay (PI3K alpha kinase assay, HTRF Transcreener ADP Assay). The experiment is classed as biochemical. The note with it: PI3K (WT). The protocol: PI3K alpha kinase assay may be done using HTRF Transcreener ADP Assay (Cisbio).
Composition of the reaction buffer was as follows 50 mM HEPES, pH 7.5, 5 mM MgCl2, 1 mM DTT, 30 μM Na3VO4. PI3 Kinase was procured from Millipore Upstate. […] ATP was used at final concentration of 10 μM. Corning 384 well white plates were used for the assay.
2 μl of diluted enzyme (50 ng), 3 μl of diluted compound and 5 μl of buffer were added, mixed then incubated for 20 minutes with shaking at 400 rpm. 3 μl of substrate (10 μM of ATP and 5 μM PIP2) were added to initiate the reaction. The samples were incubated for 20 min. At the end of the reaction time 10 μl of the Detection mix (5 μl of ADP-D2 and 5 μl of Anti-ADP-Cryptate) was added and the contents were incubated for 1 h. The reaction plate was directly read in an Envision Multilabel Plate Reader.
A general note: In TR-FRET formats the signal depends on donor and acceptor labels being close together.
`O=C1CCc2cc(Oc3nc(-c4cccc5[nH]ncc45)nc(N4CCOCC4)n3)ccc2N1` [Compound 1063, 6-14-{[4-1-(1H-indazol-4-yl)-6-5-(morpholin-4-yl)-1,3,5-triazin-2-yl]oxy}-1,2,3,4-tetrahydroquinolin-2-one] registered an IC50 below 5 µM. Then `CN(C)C(=O)c1ccc(Oc2nc(-c3cccc4[nH]ccc34)nc(N3CCOCC3)n2)cc1` [Compound 1064, 4-14-{[4-1-(1H-indol-4-yl)-6-5-(morpholin-4-yl)-1,3,5-triazin-2-yl]oxy}-N,N-dimethylbenzamide], with below 5 µM. The molecule `CN(C)C(=O)c1ccc(Nc2nc(-c3ccc(N)nc3)nc(N3CCOCC3)n2)cc1` [Compound 1065, 4-((4-(6-aminopyridin-3-yl)-6-morpholino-1,3,5-triazin-2-yl)amino)-N,N-dimethylbenzamide] displayed an IC50 below 5 µM.

The molecule `C[C@H](Nc1nc(-c2cccc(NS(C)(=O)=O)c2)nc(N2CCOCC2)n1)C(=O)N1CCN(S(C)(=O)=O)CC1` [Compound 1066, N-[3-16-(4-1-{[(2S)-1-(4-30-methanesulfonylpiperazin-1-yl)-1-oxopropan-2-yl]amino}-6-2-(morpholin-4-yl)-1,3,5-triazin-2-yl)phenyl]methanesulfonamide] returned a concentration for half-maximal inhibition (IC50) above 5 µM. On to `CN(C)C(=O)c1cc(Oc2nc(-c3cccc4[nH]ncc34)nc(N3CCOCC3)n2)cs1` [Compound 1067, 4-14-{[4-1-(1H-indazol-4-yl)-6-5-(morpholin-4-yl)-1,3,5-triazin-2-yl]oxy}-N,N-dimethylthiophene-2-carboxamide], for which the concentration for half-maximal inhibition (IC50) was below 5 µM.

As to `CN(C)C(=O)c1ccc(Oc2nc(-c3cccc4[nH]ncc34)nc(N3C4CCC3COC4)n2)cc1` [Compound 1068, 4-9-{[4-1-(1H-indazol-4-yl)-6-5-{3-oxa-8-azabicyclo[3.2.1]octan-8-yl}-1,3,5-triazin-2-yl]oxy}-N,N-dimethylbenzamide], the half-maximal inhibitory concentration (IC50) was above 5 µM. Take `CN(C)C(=O)NC1CCN(c2nc(-c3ccc(N)nc3)nc(N3CCOCC3)n2)CC1` [Compound 1069, 1-{1-7-[4-3-(6-16-aminopyridin-3-yl)-6-5-(morpholin-4-yl)-1,3,5-triazin-2-yl]piperidin-4-yl}-3,3-dimethylurea]: the IC50 was below 5 µM. `CN(C)C(=O)CNc1nc(-c2cccc3c2CCC3O)nc(N2CCOCC2)n1` (stereo not drawn) [Compound 1070, 2-((4-(1-hydroxy-2,3-dihydro-1H-inden-4-yl)-6-morpholino-1,3,5-triazin-2-yl)amino)-N,N-dimethylacetamide] came in with a 50% inhibitory concentration (IC50) above 5 µM. Then `Nc1ccc(-c2nc(CO)nc(N3CCOCC3)n2)cn1` [Compound 1071, 1-7-[4-3-(6-16-aminopyridin-3-yl)-6-5-(morpholin-4-yl)-1,3,5-triazin-2-yl]methanol], with below 5 µM; and `CN(C)C(=O)c1ccc(Oc2nc(-c3cccc4[nH]ncc34)nc(N3CCOCC3)n2)nc1` [Compound 1072, 6-14-{[4-1-(1H-indazol-4-yl)-6-5-(morpholin-4-yl)-1,3,5-triazin-2-yl]oxy}-N,N-dimethylpyridine-3-carboxamide], with above 5 µM.

Regarding `CN(C)C(=O)c1ccc(Oc2nc(-c3cccc4[nH]ncc34)nc(N3CCCOCC3)n2)cc1` [Compound 1073, 4-7-{[4-5-(1H-indazol-4-yl)-6-3-(1,4-oxazepan-4-yl)-1,3,5-triazin-2-yl]oxy}-N,N-dimethylbenzamide], the half-inhibitory concentration (IC50) was below 5 µM. Molecule `CS(=O)(=O)N1CCN(C(=O)CNc2nc(-c3ccc(O)nc3)nc(N3CCOCC3)n2)CC1` [Compound 1074, 2-((4-(6-hydroxypyridin-3-yl)-6-morpholino-1,3,5-triazin-2-yl)amino)-1-(4-(methylsulfonyl)piperazin-1-yl)ethanone] displayed a half-inhibitory concentration (IC50) below 5 µM. For the molecule `COC1CN(c2nc(Oc3ccc(C(=O)N(C)C)cc3)nc(-c3cccc4[nH]ncc34)n2)C1` [Compound 1075, 4-9-{[4-1-(1H-indazol-4-yl)-6-5-(3-29-methoxyazetidin-1-yl)-1,3,5-triazin-2-yl]oxy}-N,N-dimethylbenzamide], the 50% inhibitory concentration (IC50) was above 5 µM. The molecule `CC(Nc1nc(-c2cccc(O)c2)nc(N2CCOCC2)n1)C(=O)N1CCN(S(C)(=O)=O)CC1` (stereo not drawn) [Compound 1076, 2-((4-(3-hydroxyphenyl)-6-morpholino-1,3,5-triazin-2-yl)amino)-1-(4-(methylsulfonyl)piperazin-1-yl)propan-1-one] showed an IC50 below 5 µM.

On to `Nc1ncc(-c2nc(N3CCNCC3)nc(N3CCOCC3)n2)cn1` [Compound 1077, 5-13-[4-5-(morpholin-4-yl)-6-3-(piperazin-1-yl)-1,3,5-triazin-2-yl]pyrimidin-2-amine], for which the IC50 was below 5 µM. Regarding `O=C(O)CNc1nc(-c2cccc3c2CCC3=O)nc(N2CCOCC2)n1` [Compound 1078, 2-((4-morpholino-6-(1-oxo-2,3-dihydro-1H-inden-4-yl)-1,3,5-triazin-2-yl)amino)acetic acid], the IC50 is above 5 µM. With `COc1cccc(-c2nc(NCC(=O)N3CCN(S(C)(=O)=O)CC3)nc(N3CCOCC3)n2)c1` [Compound 1079, 2-((4-(3-methoxyphenyl)-6-morpholino-1,3,5-triazin-2-yl)amino)-1-(4-(methylsulfonyl)piperazin-1-yl)ethanone], the half-maximal inhibitory concentration (IC50) is above 5 µM. As for `CS(=O)(=O)N1CCN(C(=O)CNc2nc(-c3ccc(F)nc3)nc(N3CCOCC3)n2)CC1` [Compound 1080, 2-((4-(6-fluoropyridin-3-yl)-6-morpholino-1,3,5-triazin-2-yl)amino)-1-(4-(methylsulfonyl)piperazin-1-yl)ethanone], the 50% inhibitory concentration (IC50) is above 5 µM.

`CNC(=O)c1ccc(Oc2nc(-c3cnc(N)s3)nc(N3CCOCC3)n2)cc1` [Compound 1082] came in with a concentration for half-maximal inhibition (IC50) below 5 µM. For the molecule `CS(=O)(=O)N[C@@H]1CC[C@@H](Oc2nc(-c3cccc4[nH]ncc34)nc(N3CCOCC3)n2)C1` [Compound 1083, N-[(1R,3R)-3-14-{[4-1-(1H-indazol-4-yl)-6-5-(morpholin-4-yl)-1,3,5-triazin-2-yl]oxy}cyclopentyl]methanesulfonamide], the concentration for half-maximal inhibition (IC50) was below 5 µM. Molecule `c1ccc(Nc2nc(-c3cccc4c3cnn4C3CCCCO3)nc(N3CCOCC3)n2)cc1` (stereo not drawn) [Compound 1084, 4-morpholino-N-phenyl-6-(1-(tetrahydro-2H-pyran-2-yl)-1H-indazol-4-yl)-1,3,5-triazin-2-amine] returned a half-maximal inhibitory concentration (IC50) above 5 µM.

Take `CN(C)C(=O)Cc1ccc(Oc2nc(-c3cccc4[nH]ncc34)nc(N3CCOCC3)n2)cc1` [Compound 1085, 2-27-(4-14-{[4-1-(1H-indazol-4-yl)-6-5-(morpholin-4-yl)-1,3,5-triazin-2-yl]oxy}phenyl)-N,N-dimethylacetamide]: the IC50 was below 5 µM. Take `O=c1[nH]c2ccc(Oc3nc(-c4cccc5[nH]ncc45)nc(N4CCOCC4)n3)cc2[nH]1` [Compound 1086, 5-23-{[4-1-(1H-indazol-4-yl)-6-5-(morpholin-4-yl)-1,3,5-triazin-2-yl]oxy}-2,3-dihydro-1H-1,3-benzodiazol-2-one]: the IC50 is below 5 µM.

`CN(C)C(=O)N1CCCC(Oc2nc(-c3cccc4[nH]ncc34)nc(N3CCOCC3)n2)CC1` (stereo not drawn) [Compound 1087, 4-14-{[4-1-(1H-indazol-4-yl)-6-5-(morpholin-4-yl)-1,3,5-triazin-2-yl]oxy}-N,N-dimethylazepane-1-carboxamide]: the IC50 was below 5 µM.
